This series has as its target HSD17B13. Particulars: ASO, HepaRG.

After the bases stand the sugars from the 5' end (letter, count) and the backbone: PS all phosphorothioate, else s phosphorothioate and o phosphodiester by linkage. Methylation of C is not given here. e = 2'-O-(2-methoxyethyl) (MOE); k = constrained ethyl (cEt); d = 2'-deoxy (DNA); m = 2'-O-methyl

Take CTATCAGAACAGTTCA (sugars k3 d10 k3, PS): the target mRNA inhibition (1 µM) was determined as 48%.
Consider AGTAATAAAGTCCAGA (sugars k3 d10 k3, PS), for which the target mRNA inhibition (1 µM) turned out to be 43%.
For ACATAACTACTTCAGT (sugars k3 d10 k3, PS), under “1 µM”, the target mRNA inhibition is 28%.
The same measure, in the same setting: for CTGTAGGTTTTGCTTC (sugars k3 d10 k3, PS) the value was 27%; for “AGGTAGCTTTTGTCCA (sugars k3 d1 m1 d8 k3, PS)”, 59%.
Take CTGTGCACTCATTCTG (sugars k3 d10 k3, PS): under “1 µM”, the target mRNA inhibition is 51%.
Same read-out and setting: as for TCCCAACCCAAGCTAC (sugars k3 d10 k3, PS), the figure is 8%; as for AAGATTAGTTAACCTT (sugars k3 d10 k3, PS), 24%.
Still for that read-out and setting: for TAAGGAGTAGTGGAGC (sugars k3 d10 k3, PS) the value was 18%.
Same read-out and setting: for CTATTGTATGAGGTCT (sugars k3 d10 k3, PS) the value was 42%; for GTGCTTTTGTGATCCA (sugars k3 d10 k3, PS), 62%; for GAGAAGGCGGTATCAT (sugars k3 d10 k3, PS), 48%.
In the case of AGTAGTGGAGCCAGAC (sugars k3 d10 k3, PS), the target mRNA inhibition (1 µM) came to 39%.
Regarding “GCAAGCCAACAGAGAG (sugars kkdddddddddkekek, PS)”, the target mRNA inhibition (1 µM) worked out at 12%.
CAGACTAAGGGACCAG (sugars k3 d10 k3, PS) had a target mRNA inhibition (0.02 µM) of 23%; a target mRNA inhibition (0.078 µM) of 24%; a target mRNA inhibition (0.313 µM) of 63%; a target mRNA inhibition (1 µM) of 75%; a target mRNA inhibition (1.25 µM) of 76%; a target mRNA inhibition (5 µM) of 89%.
Consider AGAGGCAAGGATACCT (sugars k3 d10 k3, PS), for which the target mRNA inhibition reads like this: (0.02 µM) 5%; (0.078 µM) 7%; (0.313 µM) 39%; (1 µM) 78%; (1.25 µM) 68%; (5 µM) 40%.
TAAGAGTCAGTATCCT (sugars k3 d10 k3, PS) had a target mRNA inhibition (1 µM) of 52%.
TTGTAATCTTGAGGCA (sugars k3 d10 k3, PS): the target mRNA inhibition (1 µM) was 27%.
On the same count and under the same terms, as for TATACTGTCCCAGCAT (sugars k3 d10 k3, PS), the figure is 40%; as for CCAATATGGGATGAGG (sugars k3 d10 k3, PS), 60%.
Under “1 µM”, ACCATAGGACATGGAG (sugars k3 d10 k3, PS) showed a target mRNA inhibition of 62%.
As for GTAGGAGTAGATGATG (sugars k3 d10 k3, PS), the target mRNA inhibition (1 µM) came out at 7%.
Under “1 µM”, GATGCTAAAAGCTCAC (sugars k3 d10 k3, PS) registered a target mRNA inhibition of 46%.
Take GAGGATAGTCCATGCA (sugars k3 d10 k3, PS): the target mRNA inhibition (1 µM) was 59%.
As for “TAAGAGGCATGAAAGG (sugars k3 d1 m1 d8 k3, PS)”, for the setting “1 µM”, the target mRNA inhibition was determined as 50%.
Consider “GTTTCTTATGTAATAG (sugars kkdddddddddkekek, PS)”, for which the target mRNA inhibition (1 µM) was 21%.
As to TTGATCTCTTAGCTGT (sugars k3 d10 k3, PS), the target mRNA inhibition (1 µM) came out at 74%.
On to TGGTAATCTCTTCATC (sugars k3 d10 k3, PS), for which, where the note is “1 µM”, the target mRNA inhibition was 23%.
“TTGCAGTTATTAGAAG (sugars kkdddddddddkekek, PS)” yielded a target mRNA inhibition (1 µM) of 27%.
TTTCATATCCAGTAGG (sugars k3 d10 k3, PS) displayed a target mRNA inhibition (1 µM) of 36%.
For the setting “1 µM”, GTAAGTATTCCATCTA (sugars k3 d10 k3, PS) returned a target mRNA inhibition of 45%.
Same read-out and setting: for “ACATUAGCAAGCTAAG (sugars k3 d1 m1 d8 k3, PS)” the value was 23%.
Sequence CCATTTACATATGGTG (sugars k3 d10 k3, PS) had a target mRNA inhibition (1 µM) of 28%.
“AGAGAGTAATCAGTTT (sugars kkdddddddddkekek, PS)”: the target mRNA inhibition (1 µM) stood at 52%.
Turning to ACCTTACCTTGTGCTT (sugars k3 d10 k3, PS), where the note is “1 µM”, the target mRNA inhibition was 0%.
Take CCTAGATTCTACACTA (sugars k3 d10 k3, PS): under “1 µM”, the target mRNA inhibition was determined as 14%.
“AAGAGTCAGTATCCTC (sugars kkdddddddddkekek, PS)”: the target mRNA inhibition (1 µM) came to 14%.
Sequence CACTGGATGGATTTCT (sugars k3 d10 k3, PS) registered a target mRNA inhibition (1 µM) of 72%.
Still for that read-out and setting: as for GAACAATCTCCCCAGC (sugars k3 d10 k3, PS), the figure is 63%.
The sequence TGGCCTTACCAGAATT (sugars k3 d10 k3, PS) gave a target mRNA inhibition (1 µM) of 46%.
Under “1 µM”, “GACATGAGGTTTTGAT (sugars kkdddddddddkekek, PS)” gave a target mRNA inhibition of 55%.
Same read-out and setting: as for “GAATGCTACTTGAACA (sugars k3 d9 k3 e1, PS)”, the figure is 56%.
Take “CTACTTGAACAGTCTT (sugars kkdddddddddkekek, PS)”: the target mRNA inhibition (1 µM) turned out to be 47%.
For the setting “1 µM”, “TGATTGAGTTCTCCAC (sugars kkdddddddddkekek, PS)” displayed a target mRNA inhibition of 32%.
As to “GGTTGAGATAAAGCTG (sugars k3 d1 m1 d8 k3, PS)”, the target mRNA inhibition (1 µM) is 57%.
Still for that read-out and setting: as for “AGTACAGTTCCTTTTC (sugars kkdddddddddkekek, PS)”, the figure is 40%; as for TGACAACAGAGTTCTG (sugars k3 d10 k3, PS), 11%; as for “ACTAATATTGAGGCAC (sugars k3 d1 m1 d8 k3, PS)”, 42%.
“CATAACTTCATAGTGG (sugars kkdddddddddkekek, PS)” returned a target mRNA inhibition (1 µM) of 15%.
On to TTTTTAATACGACTTC (sugars k3 d10 k3, PS), for which the target mRNA inhibition (1 µM) was determined as 52%.
In turn, “CAGATTATTATGTGAT (sugars kkdddddddddkekek, PS)” registered a target mRNA inhibition (1 µM) of 31%.
As to CTACCTCCAAATTCCC (sugars k3 d10 k3, PS), the target mRNA inhibition (1 µM) turned out to be 27%.
With “CTTTGAGACTCTTGTT (sugars kkdddddddddkekek, PS)”, where the note is “1 µM”, the target mRNA inhibition came to 42%.
As to GAATTGCTCACCCTTT (sugars k3 d10 k3, PS), for the setting “1 µM”, the target mRNA inhibition was determined as 24%.
The sequence GTTTACTCACTTCTGG (sugars k3 d10 k3, PS) gave a target mRNA inhibition (1 µM) of 29%.
The same measure, in the same setting: as for “ACAGTCTTAAACCTTC (sugars kkdddddddddkekek, PS)”, the figure is 46%.
Same read-out and setting: for CTTGACAATGGTTGAT (sugars k3 d10 k3, PS) the value was 54%; for TACCAGAGCATTCATC (sugars k3 d10 k3, PS), 55%; for TGTCTCCAATACAGGC (sugars k3 d10 k3, PS), 39%.
Consider “ATAGAGTCGGTCACCT (sugars k3 d1 m1 d8 k3, PS)”, for which the target mRNA inhibition (1 µM) came out at 50%.
As to ACCACATACGCATGCG (sugars k3 d10 k3, PS), the target mRNA inhibition (1 µM) is 45%.
Take GCAAGGATACCTGAAA (sugars k3 d10 k3, PS): where the note is “1 µM”, the target mRNA inhibition came out at 67%.
As to GGATGATGTTCATGGC (sugars k3 d10 k3, PS), the target mRNA inhibition is, setting by setting: (0.02 µM) 4%; (0.078 µM) 40%; (0.313 µM) 75%; (1 µM) 82%; (1.25 µM) 80%; (5 µM) 76%.

These data come from the OligoGym collection.
